Data published in patent publication US20080009418A1, “Selective Inhibitors” (Alchemia LTD., priority 2004, published 2008).

How the values were obtained:
Human δ-opioid (DOP) = target: T1, Human δ-opioid (DOP) (Homo sapiens, UniProt P41143); test: Radioligand binding, human δ-opioid (DOP) membranes, FlashPlate, [3H]-Bremazocine; details: compound at 10 μM; [3H]-Bremazocine, human DOP membranes
T1 construct: purchased Perkin Elmer Biosignal
Procedure, shortened: (§1)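 Cloned human receptor membranes were coated onto FlashPlate wells and incubated with radioligand and compound (added from a 0.5 mM DMSO daughter plate) for 1 hour at room temperature in the dark. Scintillation counting gave percent inhibition, with DMSO defining total and reference ligand defining non-specific binding.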

Human κ-Opioid (KOP) = target: T2, Human κ-Opioid (KOP) (Homo sapiens, UniProt P41145); test: Radioligand binding, human κ-opioid (KOP) membranes, filtration, [3H]-Diprenorphine; details: compound at 10 μM; [3H]-Diprenorphine, human KOP membranes
T2 construct: purchased Perkin Elmer Biosignal
Procedure, shortened: (§2)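 Percent inhibition of radioligand binding measured on recombinant human membranes: NK1 with [125I]-Substance P, KOP with [3H]-Diprenorphine. Incubation 1 h at room temperature, then harvest onto 0.3% PEI-soaked filters, cold Tris-HCl pH 7.4 washes and scintillation counting; non-specific binding from reference ligand wells.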

Human Melanocortin (MC3) = target: T3, Human Melanocortin (MC3) (Homo sapiens, UniProt P41968); test: Radioligand binding, human melanocortin MC3 membranes, FlashPlate, [125I]-NDP-αMSH; details: compound at 10 μM; [125I]-NDP-αMSH, human MC3 membranes
T3 construct: purchased Perkin Elmer Biosignal
Procedure, shortened: as §1

Human Melanocortin (MC4) = target: T4, Human Melanocortin (MC4) (Homo sapiens, UniProt P32245); test: Radioligand binding, human melanocortin MC4 membranes, FlashPlate, [125I]-NDP-αMSH; details: compound at 10 μM; [125I]-NDP-αMSH, human MC4 membranes
T4 construct: purchased Perkin Elmer Biosignal
Procedure, shortened: as §1

Human melanocortin (MC5) = target: T5, Human melanocortin (MC5) (Homo sapiens, UniProt P33032); test: Radioligand binding, human melanocortin MC5 membranes, FlashPlate, [125I]-NDP-αMSH; details: compound at 10 μM, [125I]-NDP-αMSH, human MC5 membranes
T5 construct: purchased Perkin Elmer Biosignal
Procedure, shortened: as §1

[1] = target: T6, Human melanin-concentrating hormone (MCH1) (Homo sapiens, UniProt Q99705); test: Radioligand binding, human melanin-concentrating hormone MCH1 membranes, FlashPlate, [125I]-S36057; details: compound at 10 μM; [125I]-S36057, human MCH1 membranes
T6 construct: purchased Perkin Elmer Biosignal
Procedure, shortened: as §1

Human μ-opioid (MOP) = target: T7, Human μ-opioid (MOP) (Homo sapiens, UniProt P35372); test: Radioligand binding, human μ-opioid (MOP) membranes, FlashPlate, [3H]-Naloxone; details: compound at 10 μM; [3H]-Naloxone, human MOP membranes
T7 construct: purchased Perkin Elmer Biosignal
Procedure, shortened: as §1

Human neurokinin (NK1) = target: T8, Human neurokinin (NK1) (Homo sapiens, UniProt P25103); test: Radioligand binding, human neurokinin NK1 membranes, filtration, [125I]-Substance P; details: compound at 10 μM; [125I]-Substance P, human NK1 membranes
T8 construct: purchased Perkin Elmer Biosignal
Procedure, shortened: as §2

[2] = target: T9, Human neuropeptide Y (NPY-Y1) (Homo sapiens, UniProt P25929); test: Radioligand binding, human neuropeptide Y NPY-Y1 membranes, FlashPlate, [125I]-PYY; details: compound at 10 μM; [125I]-PYY, human NPY-Y1 membranes
T9 construct: purchased Perkin Elmer Biosignal
T9 sequence (P25929 1-384): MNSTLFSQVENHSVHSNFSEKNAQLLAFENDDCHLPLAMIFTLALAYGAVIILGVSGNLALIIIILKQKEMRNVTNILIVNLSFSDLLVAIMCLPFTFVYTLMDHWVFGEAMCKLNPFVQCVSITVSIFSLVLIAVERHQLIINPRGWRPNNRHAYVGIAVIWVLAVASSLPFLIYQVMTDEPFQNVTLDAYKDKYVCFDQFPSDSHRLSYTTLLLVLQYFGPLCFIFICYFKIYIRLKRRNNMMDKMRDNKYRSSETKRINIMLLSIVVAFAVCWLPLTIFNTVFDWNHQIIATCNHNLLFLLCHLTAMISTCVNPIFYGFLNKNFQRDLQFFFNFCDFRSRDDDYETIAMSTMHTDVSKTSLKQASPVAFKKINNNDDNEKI
Procedure, shortened: as §1

Human opioid (ORL1) = target: T10, Human opioid (ORL1) (Homo sapiens, UniProt P41146); test: Radioligand binding, human opioid ORL1 membranes, FlashPlate, [125I]-Nociceptin; details: compound at 10 μM; [125I]-Nociceptin, human ORL1 membranes
T10 construct: purchased Perkin Elmer Biosignal
Procedure, shortened: as §1

Mouse urotensin (mUR2) = target: T11, Mouse urotensin (mUR2) (Mus musculus, UniProt Q8VIH9); test: Radioligand binding, mouse urotensin mUR2 membranes, FlashPlate, [125I]-Urotensin II; details: compound at 10 μM; [125I]-Urotensin II, mouse mUR2 membranes
T11 construct: purchased Perkin Elmer Biosignal
T11 sequence (Q8VIH9 1-385): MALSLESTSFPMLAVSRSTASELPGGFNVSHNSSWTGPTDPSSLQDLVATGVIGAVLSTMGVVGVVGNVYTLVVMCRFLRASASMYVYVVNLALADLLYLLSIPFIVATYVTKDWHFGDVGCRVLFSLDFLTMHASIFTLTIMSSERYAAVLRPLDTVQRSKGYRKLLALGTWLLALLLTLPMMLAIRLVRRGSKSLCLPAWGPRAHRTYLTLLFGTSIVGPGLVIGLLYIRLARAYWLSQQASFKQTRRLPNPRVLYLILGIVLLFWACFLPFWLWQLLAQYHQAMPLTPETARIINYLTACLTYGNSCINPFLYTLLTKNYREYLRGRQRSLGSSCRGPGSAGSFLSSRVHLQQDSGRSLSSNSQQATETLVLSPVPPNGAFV
Procedure, shortened: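 Cloned mouse urotensin (mUR2) receptor membranes from Perkin Elmer Biosignal were immobilized in FlashPlate microplates using a proprietary coating. Each well got 19.5 μl buffer, then 0.5 μl of DMSO, reference ligand, or compound. Adding 5 μl of [125I]-Urotensin II, diluted to 5× final concentration in binding buffer, started binding. Plates were sealed with TopSeal-A and incubated 1 hour at room temperature in the dark. Wells were counted for 30 seconds each on a TopCount after a 60-second delay, and percentage inhibition was calculated.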

T2 sequence (P41145 whole entry): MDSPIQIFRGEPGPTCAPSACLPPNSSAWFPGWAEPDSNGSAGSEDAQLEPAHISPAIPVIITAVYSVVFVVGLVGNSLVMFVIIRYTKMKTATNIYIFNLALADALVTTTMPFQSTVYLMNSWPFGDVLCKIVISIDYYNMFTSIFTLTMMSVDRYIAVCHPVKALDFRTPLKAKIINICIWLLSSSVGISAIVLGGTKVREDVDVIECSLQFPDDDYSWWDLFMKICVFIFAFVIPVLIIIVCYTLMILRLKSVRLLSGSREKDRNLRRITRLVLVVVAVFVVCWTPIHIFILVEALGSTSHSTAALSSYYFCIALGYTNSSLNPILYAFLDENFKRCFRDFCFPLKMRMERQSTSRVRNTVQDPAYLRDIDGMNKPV
T6 sequence (Q99705 whole entry): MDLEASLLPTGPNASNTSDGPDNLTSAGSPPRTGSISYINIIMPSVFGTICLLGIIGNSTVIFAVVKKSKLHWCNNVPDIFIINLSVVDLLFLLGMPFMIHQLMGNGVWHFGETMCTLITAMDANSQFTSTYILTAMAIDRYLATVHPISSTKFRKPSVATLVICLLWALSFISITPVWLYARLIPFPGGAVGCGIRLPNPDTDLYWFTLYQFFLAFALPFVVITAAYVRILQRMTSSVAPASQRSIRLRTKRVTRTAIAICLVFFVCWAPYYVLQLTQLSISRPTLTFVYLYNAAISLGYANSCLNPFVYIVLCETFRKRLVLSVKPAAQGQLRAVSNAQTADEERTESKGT
T8 sequence (P25103 whole entry): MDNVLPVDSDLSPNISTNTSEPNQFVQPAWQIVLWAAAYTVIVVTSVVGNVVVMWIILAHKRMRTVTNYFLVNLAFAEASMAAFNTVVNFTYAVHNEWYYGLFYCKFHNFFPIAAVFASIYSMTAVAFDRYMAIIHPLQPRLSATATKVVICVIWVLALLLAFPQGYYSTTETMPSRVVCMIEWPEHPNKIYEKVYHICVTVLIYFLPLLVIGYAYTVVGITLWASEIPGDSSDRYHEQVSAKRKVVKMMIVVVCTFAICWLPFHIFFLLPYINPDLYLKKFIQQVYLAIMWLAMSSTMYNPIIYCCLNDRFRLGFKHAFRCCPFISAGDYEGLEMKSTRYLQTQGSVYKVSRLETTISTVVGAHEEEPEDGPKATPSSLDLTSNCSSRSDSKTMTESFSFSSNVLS
T1 sequence (P41143 whole entry): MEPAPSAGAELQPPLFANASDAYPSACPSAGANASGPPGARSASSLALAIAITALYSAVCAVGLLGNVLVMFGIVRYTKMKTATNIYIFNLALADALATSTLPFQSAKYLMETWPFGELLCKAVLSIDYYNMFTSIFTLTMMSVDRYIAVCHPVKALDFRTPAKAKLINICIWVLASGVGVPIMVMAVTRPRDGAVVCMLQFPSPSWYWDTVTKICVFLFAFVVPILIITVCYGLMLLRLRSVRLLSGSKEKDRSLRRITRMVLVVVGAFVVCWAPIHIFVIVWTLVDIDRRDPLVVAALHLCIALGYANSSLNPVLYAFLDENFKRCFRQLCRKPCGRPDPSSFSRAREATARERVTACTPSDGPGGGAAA
T10 sequence (P41146 whole entry): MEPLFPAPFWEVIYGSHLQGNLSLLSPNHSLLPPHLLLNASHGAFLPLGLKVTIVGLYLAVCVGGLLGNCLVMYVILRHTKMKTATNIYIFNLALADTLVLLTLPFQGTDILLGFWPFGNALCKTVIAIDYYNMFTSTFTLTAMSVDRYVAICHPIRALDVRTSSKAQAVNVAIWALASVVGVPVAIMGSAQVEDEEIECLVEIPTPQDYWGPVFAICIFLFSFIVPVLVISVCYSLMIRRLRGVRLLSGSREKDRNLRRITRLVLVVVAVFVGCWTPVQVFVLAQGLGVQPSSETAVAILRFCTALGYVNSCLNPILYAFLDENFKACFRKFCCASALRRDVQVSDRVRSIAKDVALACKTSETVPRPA
T5 sequence (P33032 whole entry): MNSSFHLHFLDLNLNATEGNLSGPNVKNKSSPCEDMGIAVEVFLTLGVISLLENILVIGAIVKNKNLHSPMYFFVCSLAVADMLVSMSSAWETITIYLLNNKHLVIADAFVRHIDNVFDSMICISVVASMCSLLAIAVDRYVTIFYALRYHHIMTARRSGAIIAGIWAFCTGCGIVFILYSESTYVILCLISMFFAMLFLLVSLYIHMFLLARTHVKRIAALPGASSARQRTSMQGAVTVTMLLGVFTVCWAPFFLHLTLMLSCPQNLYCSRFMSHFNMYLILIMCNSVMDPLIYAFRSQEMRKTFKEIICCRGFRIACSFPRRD
T7 sequence (P35372 whole entry): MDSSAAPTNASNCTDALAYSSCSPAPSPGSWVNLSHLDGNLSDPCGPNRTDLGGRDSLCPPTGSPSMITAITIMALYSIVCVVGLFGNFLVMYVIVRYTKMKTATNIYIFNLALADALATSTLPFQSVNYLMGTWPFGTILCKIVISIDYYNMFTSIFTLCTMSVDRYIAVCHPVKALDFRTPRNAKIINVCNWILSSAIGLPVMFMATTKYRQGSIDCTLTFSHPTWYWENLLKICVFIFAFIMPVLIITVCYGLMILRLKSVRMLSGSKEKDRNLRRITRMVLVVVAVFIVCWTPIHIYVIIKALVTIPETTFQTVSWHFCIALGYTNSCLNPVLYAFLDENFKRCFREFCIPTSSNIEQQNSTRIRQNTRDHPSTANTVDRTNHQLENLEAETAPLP
T4 sequence (P32245 whole entry): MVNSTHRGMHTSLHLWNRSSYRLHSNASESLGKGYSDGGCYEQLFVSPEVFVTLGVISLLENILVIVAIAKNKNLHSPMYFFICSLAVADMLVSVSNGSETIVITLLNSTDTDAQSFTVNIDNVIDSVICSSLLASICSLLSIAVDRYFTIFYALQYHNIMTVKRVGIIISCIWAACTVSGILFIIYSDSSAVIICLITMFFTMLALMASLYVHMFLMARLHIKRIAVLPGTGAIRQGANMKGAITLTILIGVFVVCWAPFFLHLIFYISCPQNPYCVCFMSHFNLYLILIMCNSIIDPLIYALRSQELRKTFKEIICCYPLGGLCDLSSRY
T3 sequence (P41968 whole entry): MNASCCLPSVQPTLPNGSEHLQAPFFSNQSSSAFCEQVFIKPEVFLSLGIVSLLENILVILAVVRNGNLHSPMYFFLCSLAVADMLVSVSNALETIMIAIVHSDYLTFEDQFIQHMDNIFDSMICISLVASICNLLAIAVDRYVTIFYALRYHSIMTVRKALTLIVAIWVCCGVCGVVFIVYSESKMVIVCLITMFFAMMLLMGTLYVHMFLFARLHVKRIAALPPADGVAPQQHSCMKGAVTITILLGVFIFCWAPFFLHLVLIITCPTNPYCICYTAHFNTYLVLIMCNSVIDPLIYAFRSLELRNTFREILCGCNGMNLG

| SMILES | A1: inhibition of radioligand binding (Human δ-opioid (DOP)) | A2: inhibition of radioligand binding (Human κ-Opioid (KOP)) | A3: inhibition of radioligand binding (Human Melanocortin (MC3)) | A4: inhibition of radioligand binding (Human Melanocortin (MC4)) | A5: inhibition of radioligand binding (Human melanocortin (MC5)) | A6: inhibition of radioligand binding [1] | A7: inhibition of radioligand binding (Human μ-opioid (MOP)) | A8: inhibition of radioligand binding (Human neurokinin (NK1)) | A9: inhibition of radioligand binding [2] | A10: inhibition of radioligand binding (Human opioid (ORL1)) | A11: inhibition of radioligand binding (Mouse urotensin (mUR2)) | A5: inhibition of radioligand binding (Human melanocortin (MC5); 10 µM) |
| --- | --- | --- | --- | --- | --- | --- | --- | --- | --- | --- | --- | --- |
| NCCC(=O)NC1C(OCc2ccc3ccccc3c2)OC(COCc2ccc3ccccc3c2)C(O)C1OCc1ccc2ccccc2c1 (stereo not shown) [compound 384] | − (“−” indicates less than 50% inhibition at 10 μM) | − (“−” indicates less than 50% inhibition at 10 μM) | + (“+” indicates greater than 50% inhibition at 10 μM) | + (“+” indicates greater than 50% inhibition at 10 μM) | + (“+” indicates greater than 50% inhibition at 10 μM) | + (“+” indicates greater than 50% inhibition at 10 μM) | − (“−” indicates less than 50% inhibition at 10 μM) | + (“+” indicates greater than 50% inhibition at 10 μM) | − (“−” indicates less than 50% inhibition at 10 μM) | − (“−” indicates less than 50% inhibition at 10 μM) | − (“−” indicates less than 50% inhibition at 10 μM) | – |
| NCCC(=O)NC1C(OCc2ccc3ccccc3c2)OC(COCc2ccccc2)C(O)C1OCc1ccc2ccccc2c1 (stereo not shown) [compound 385] | − (“−” indicates less than 50% inhibition at 10 μM) | − (“−” indicates less than 50% inhibition at 10 μM) | + (“+” indicates greater than 50% inhibition at 10 μM) | + (“+” indicates greater than 50% inhibition at 10 μM) | + (“+” indicates greater than 50% inhibition at 10 μM) | + (“+” indicates greater than 50% inhibition at 10 μM) | − (“−” indicates less than 50% inhibition at 10 μM) | + (“+” indicates greater than 50% inhibition at 10 μM) | − (“−” indicates less than 50% inhibition at 10 μM) | − (“−” indicates less than 50% inhibition at 10 μM) | − (“−” indicates less than 50% inhibition at 10 μM) | – |
| NCCC(=O)NC1C(OCc2ccc3ccccc3c2)OC(COCc2ccc(Cl)cc2)C(O)C1OCc1ccc2ccccc2c1 (stereo not shown) [compound 386] | − (“−” indicates less than 50% inhibition at 10 μM) | − (“−” indicates less than 50% inhibition at 10 μM) | + (“+” indicates greater than 50% inhibition at 10 μM) | + (“+” indicates greater than 50% inhibition at 10 μM) | + (“+” indicates greater than 50% inhibition at 10 μM) | − (“−” indicates less than 50% inhibition at 10 μM) | − (“−” indicates less than 50% inhibition at 10 μM) | + (“+” indicates greater than 50% inhibition at 10 μM) | − (“−” indicates less than 50% inhibition at 10 μM) | − (“−” indicates less than 50% inhibition at 10 μM) | − (“−” indicates less than 50% inhibition at 10 μM) | – |
| NCCC(=O)NC1C(OCc2ccc3ccccc3c2)OC(COCc2ccc3ccccc3c2)C(O)C1OCc1ccccc1 (stereo not shown) [compound 387] | − (“−” indicates less than 50% inhibition at 10 μM) | − (“−” indicates less than 50% inhibition at 10 μM) | + (“+” indicates greater than 50% inhibition at 10 μM) | + (“+” indicates greater than 50% inhibition at 10 μM) | + (“+” indicates greater than 50% inhibition at 10 μM) | − (“−” indicates less than 50% inhibition at 10 μM) | − (“−” indicates less than 50% inhibition at 10 μM) | + (“+” indicates greater than 50% inhibition at 10 μM) | − (“−” indicates less than 50% inhibition at 10 μM) | − (“−” indicates less than 50% inhibition at 10 μM) | − (“−” indicates less than 50% inhibition at 10 μM) | – |
| NCCC(=O)NC1C(OCc2ccc3ccccc3c2)OC(COCc2ccccc2)C(O)C1OCc1ccccc1 (stereo not shown) [compound 388] | − (“−” indicates less than 50% inhibition at 10 μM) | − (“−” indicates less than 50% inhibition at 10 μM) | − (“−” indicates less than 50% inhibition at 10 μM) | + (“+” indicates greater than 50% inhibition at 10 μM) | – | − (“−” indicates less than 50% inhibition at 10 μM) | − (“−” indicates less than 50% inhibition at 10 μM) | + (“+” indicates greater than 50% inhibition at 10 μM) | − (“−” indicates less than 50% inhibition at 10 μM) | − (“−” indicates less than 50% inhibition at 10 μM) | − (“−” indicates less than 50% inhibition at 10 μM) | + (“+” indicates greater than 50% inhibition at 10 μM) |
